Assay results taken from US10022354B2, “Pyrrolidine amide compounds as histone demethylase inhibitors” (GENENTECH, INC., priority 2014, dated 2018).

Tests used:
full length KDM5A enzyme = full length KDM5A enzyme (Homo sapiens (Human), UniProt P29375); assay: KDM5 Enzyme Assay (KDM5A HTRF); format: biochemical; details: 2 nM full length KDM5A, 100 nM H3K4Me3 peptide, 1 uM 2-OG, 30 min room temperature
In short: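 KDM5A demethylase activity was assessed by HTRF using in-house expressed and purified full length human KDM5A at 2 nM with 100 nM biotinylated H3K4Me3 peptide and 1 uM 2-OG. The 10 uL reaction also held 100 uM Fe^2+, 500 uM ascorbate, 50 mM HEPES pH 7.0, 0.01% Triton-X 100, 2 mM DTT and 0.25% DMSO. Detection used Eu-labeled H3K4me1-2 antibody and streptavidin-XL665, read on an Envision reader.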

[1] = system: H3K4Me3 mark level in PC9 cells; assay: KDM5 Cell Assay (H3K4Me3 mark level, PC9 HTRF); format: cell-based; details: Homo sapiens, PC-9, 120 hours at 37° C.
Description: PC9 cells were seeded in a 384 well plate (2000 cells/well) with a test compound and incubated for 120 hours at 37° C. H3K4Me3 mark level was assessed using HTRF reagents from CisBio. Briefly, media was removed and cells were lysed in 20 μL of Epigeneous Cell Histone lysis buffer C for 45 min at 26° C., shaking. 10 μL of 4 μg/mL acceptor antibody (H3K4me3-d2) and 10 μL of 1.2 μg/mL donor antibody (Total H3-K) in Cell Histone detection buffer were added and the mixture was incubated at 26° C. for 1 hour. Assay plate was read subsequently on Envision (Perkin Elmer). Each compound was run in duplicate. Data were normalized to DMSO treated wells as the low response and EC50's were calculate using a four-parameter fit.

Sequence of full length KDM5A enzyme (P29375 whole entry): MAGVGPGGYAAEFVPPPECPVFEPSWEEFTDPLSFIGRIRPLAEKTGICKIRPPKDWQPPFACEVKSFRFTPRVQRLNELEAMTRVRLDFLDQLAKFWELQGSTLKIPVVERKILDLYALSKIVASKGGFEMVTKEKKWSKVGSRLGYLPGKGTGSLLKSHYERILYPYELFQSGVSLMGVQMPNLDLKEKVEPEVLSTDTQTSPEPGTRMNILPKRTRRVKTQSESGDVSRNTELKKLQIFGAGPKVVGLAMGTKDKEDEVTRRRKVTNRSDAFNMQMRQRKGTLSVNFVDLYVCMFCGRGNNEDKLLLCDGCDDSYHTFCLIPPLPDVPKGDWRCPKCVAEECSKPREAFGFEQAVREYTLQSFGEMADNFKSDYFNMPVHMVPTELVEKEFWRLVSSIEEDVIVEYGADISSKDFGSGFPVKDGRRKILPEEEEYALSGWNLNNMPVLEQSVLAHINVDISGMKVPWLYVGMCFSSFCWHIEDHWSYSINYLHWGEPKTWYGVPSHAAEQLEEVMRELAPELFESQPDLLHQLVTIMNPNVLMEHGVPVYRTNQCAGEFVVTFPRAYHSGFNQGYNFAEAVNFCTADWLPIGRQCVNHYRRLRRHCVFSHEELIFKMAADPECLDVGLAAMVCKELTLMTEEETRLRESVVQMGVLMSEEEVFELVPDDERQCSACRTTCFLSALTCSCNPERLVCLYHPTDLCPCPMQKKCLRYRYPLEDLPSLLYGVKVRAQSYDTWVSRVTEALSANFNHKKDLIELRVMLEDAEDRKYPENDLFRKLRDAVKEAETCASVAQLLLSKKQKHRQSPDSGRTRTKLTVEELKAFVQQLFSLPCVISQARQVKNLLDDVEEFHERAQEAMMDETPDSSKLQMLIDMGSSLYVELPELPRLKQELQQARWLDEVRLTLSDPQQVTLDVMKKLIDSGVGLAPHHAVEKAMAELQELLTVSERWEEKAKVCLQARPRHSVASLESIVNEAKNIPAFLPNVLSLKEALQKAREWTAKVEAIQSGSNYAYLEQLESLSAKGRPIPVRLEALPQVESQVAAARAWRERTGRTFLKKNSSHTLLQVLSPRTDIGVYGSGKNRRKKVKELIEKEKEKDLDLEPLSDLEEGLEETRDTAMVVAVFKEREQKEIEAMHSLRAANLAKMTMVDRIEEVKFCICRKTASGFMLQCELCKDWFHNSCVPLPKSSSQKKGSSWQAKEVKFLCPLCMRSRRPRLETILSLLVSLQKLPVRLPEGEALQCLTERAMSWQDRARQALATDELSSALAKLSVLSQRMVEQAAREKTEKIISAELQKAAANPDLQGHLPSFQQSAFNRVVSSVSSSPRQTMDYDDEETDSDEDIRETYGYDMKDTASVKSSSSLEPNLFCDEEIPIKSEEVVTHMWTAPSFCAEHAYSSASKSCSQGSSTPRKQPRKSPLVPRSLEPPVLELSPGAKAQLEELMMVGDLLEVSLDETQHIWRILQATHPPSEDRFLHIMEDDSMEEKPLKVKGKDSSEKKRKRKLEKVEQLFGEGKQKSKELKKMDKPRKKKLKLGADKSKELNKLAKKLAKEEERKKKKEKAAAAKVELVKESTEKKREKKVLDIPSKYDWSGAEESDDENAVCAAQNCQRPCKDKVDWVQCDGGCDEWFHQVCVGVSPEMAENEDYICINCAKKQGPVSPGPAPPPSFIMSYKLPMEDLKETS

Row | Compound | IC50 (full length KDM5A enzyme) [nM] | EC50 [1] [nM]
1 | CC(C)c1cc(C(=O)N2CCC(c3cc(-c4cnn(C)c4)ccn3)C2)[nH]n1 (stereo not shown) [Example 12, (3-Isopropyl-1H-pyrazol-5-yl)(3-(4-(1-methyl-1H-pyrazol-4-yl)pyridin-2-yl)pyrrolidin-1-yl) Methanone] | 0.57 | 23
2 | CC(C)n1cnc(C(=O)N2CCC(NC(=O)C3CC3)C2)c1 (stereo not shown) [Example 19, N-(1-(1-isopropyl-1H-imidazole-4-carbonyl)pyrrolidin-3-yl)cyclopropanecarboxamide] | 0.21 | 26
3 | CC(CCCc1ccccc1)c1cc(C(=O)N2CCC(NC(=O)C3CC3)C2)n[nH]1 (stereo not shown) [Example 22, N-(1-(5-(5-phenylpentan-2-yl)-1H-pyrazole-3-carbonyl)pyrrolidin-3-yl) cyclopropanecarboxamide] | 0.12 | 11
4 | CC(C)c1cc(C(=O)N2CC[C@@H](NC(=O)C3CC3)C2)[nH]n1 [Example 29, (R)—N-(1-(3-isopropyl-1H-pyrazole-5-carbonyl)pyrrolidin-3-yl)cyclopropane Carboxamide] | 0.049 | 0.93
5 | CC(C)c1cc(C(=O)N2CCC(N3Cc4ccccc4C3=O)C2)[nH]n1 (stereo not shown) [Example 30, 2-(1-(3-Isopropyl-1H-pyrazole-5-carbonyl)pyrrolidin-3-yl)isoindolin-1-one] | 0.14 | 15
6 | CC(C)c1cc(C(=O)N2CCC(NC(=O)NC3CC3)C2)[nH]n1 (stereo not shown) [Example 33, 1-Cyclopropyl-3-(1-(3-isopropyl-1H-pyrazole-5-carbonyl)pyrrolidin-3-yl)urea] | 0.087 | 3.3
7 | CNC(=O)NC1CCN(C(=O)c2cc(C(C)C)n[nH]2)C1 (stereo not shown) [Example 34, 1-(1-(3-Isopropyl-1H-pyrazole-5-carbonyl)pyrrolidin-3-yl)-3-methylurea] | 0.058 | 2.3
8 | Cc1cccn(C2CCN(C(=O)c3cc(C(C)C)n[nH]3)C2)c1=O (stereo not shown) [Example 40, 1-(1-(3-Isopropyl-1H-pyrazole-5-carbonyl)pyrrolidin-3-yl)-3-methylpyridin-2(1H)-one] | 0.058 | 3.7
9 | CC(C)c1cc(C(=O)N2CC[C@@H](n3cccc(C4CC4)c3=O)C2)[nH]n1 [Example 41, (R)-3-cyclopropyl-1-(1-(3-isopropyl-1H-pyrazole-5-carbonyl)pyrrolidin-3-yl)pyridin-2(1H)-one] | 0.051 | 6.8
10 | CC(C)c1cc(C(=O)N2CCC(n3cc(Br)cn3)C2)[nH]n1 (stereo not shown) [Example 59] | 0.74 | 30
11 | Cc1cc(-c2cnn(Cc3ccccc3)c2)cc(C2CCN(C(=O)c3cc(C(C)C)n[nH]3)C2)n1 (stereo not shown) [Example 69] | 0.11 | 15
12 | CC(C)c1cc(C(=O)N2CC[C@H](NC(=O)c3ccccc3)C2)[nH]n1 [Example 117] | 0.077 | 8.2
13 | CC(C)c1cc(C(=O)N2CCC(NC(=O)C3(C)CC3)C2)[nH]n1 (stereo not shown) [Example 128] | 0.059 | 4.4
14 | CC(C)c1cc(C(=O)N2CCC(NC(=O)C3(C)CCC3)C2)[nH]n1 (stereo not shown) [Example 134] | 0.071 | 6.4
15 | CC(C)c1cc(C(=O)N2CCC(NC(=O)c3ccc4cc[nH]c4n3)C2)[nH]n1 (stereo not shown) [Example 135] | 0.076 | 4.9
16 | CC(C)c1cc(C(=O)N2CCC(NC(=O)c3ccccc3OCc3ccccc3)C2)[nH]n1 (stereo not shown) [Example 136] | 0.054 | 2.5
17 | CCC1(C(=O)NC2CCN(C(=O)c3cc(C(C)C)n[nH]3)C2)CC1 (stereo not shown) [Example 141] | 0.14 | 6.5
18 | CC(C)c1cc(C(=O)N2CCC(NC(=O)C3CC3)C2)[nH]n1 (stereo not shown) [Example 151] |  | 1.7
19 | CC(C)c1cc(C(=O)N2CCC(NC(=O)C3(O)CC3)C2)[nH]n1 (stereo not shown) [Example 171] | 0.2 | 8.6

Row | Compound | IC50 (full length KDM5A enzyme) [nM] | EC50 [1] [nM]
20 | CCCOc1ccccc1C(=O)NC1CCN(C(=O)c2cc(C(C)C)n[nH]2)C1 (stereo not shown) [Example 180] | 0.065 | 3.2
21 | CC(C)c1cc(C(=O)N2CC[C@@H](NC(=O)c3ccccc3)C2)[nH]n1 [Example 183] |  | 4.8
22 | O=C(NC1CCN(C(=O)c2cc(C3CCC3)n[nH]2)C1)C1CC1 (stereo not shown) [Example 210] | 0.16 | 6.7
23 | CC(CCc1ccccc1)c1cc(C(=O)N2CCC(NC(=O)C3CC3)C2)[nH]n1 (stereo not shown) [Example 212] | 0.12 | 11
24 | CC(C)c1cc(C(=O)N2C[C@H](NC(=O)C3CC3)[C@@H](F)C2)[nH]n1 [Example 218] | 0.05 | 1.7
25 | CC(C)c1cc(C(=O)N2C[C@H](NC(=O)C3CC3)[C@@H](O)C2)[nH]n1 [Example 219] | 0.046 | 1.8
26 | CC(C)c1cc(C(=O)N2C[C@H](NC(=O)C3CC3)C3(CC3)C2)[nH]n1 [Example 220] | 0.16 | 2.5
27 | CC(C)c1cc(C(=O)N2CC[C@@H](NC(=O)C3(F)CC3)C2)[nH]n1 [Example 221] | 0.051 | 2.1
28 | CC(C)c1cc(C(=O)N2CC[C@@H](NC(=O)[C@H]3C[C@H]3F)C2)[nH]n1 [Example 222] | 0.025 | 1.3
29 | CC(C)c1cc(C(=O)N2CC[C@@H](NC(=O)C3(C)CC3)C2)[nH]n1 [Example 224] | 0.074 | 1.4
30 | CC(C)c1cc(C(=O)N2CC[C@H](NC(=O)C3(C)CC3)C2)[nH]n1 [Example 225] | 0.11 | 14
31 | CC(C)c1cc(C(=O)N2CC[C@@H](NC(=O)C3CC34CC4)C2)[nH]n1 (stereo partly shown) [Example 228] | 0.078 | 1.1
32 | CC(C)c1cc(C(=O)N2CC[C@@H](NC(=O)[C@@H]3C[C@H]3F)C2)[nH]n1 [Example 232] | 0.14 | 5
33 | CC(C)c1cc(C(=O)N2CCC(n3cc(Br)c(C4CC4)n3)C2)[nH]n1 (stereo not shown) [Example 234] | 0.16 | 19
34 | CC(C)c1cc(C(=O)N2CCC(n3cc(Br)c(C(C)C)n3)C2)[nH]n1 (stereo not shown) [Example 238] | 0.15 | 7
35 | CC(C)c1cc(C(=O)N2CCC(n3ncc4c(F)cc(Br)cc43)C2)[nH]n1 (stereo not shown) [Example 245] | 0.91 | 
36 | CC(C)c1cc(C(=O)N2CC[C@@H](n3ncc4c(F)cccc43)C2)[nH]n1 [Example 246] | 0.3 | 23
37 | CC(C)c1cc(C(=O)N2CC[C@@H](n3cc4c(F)cccc4n3)C2)[nH]n1 [Example 247] | 0.43 | 
